Values joined by “and” are separate entries in the source; they are usually repeats but may differ in a detail not shown here. Equal entries are not always repeated.
Experiments:
[1] = Physical stability on storage: particle size (Dv90) by laser diffraction; format: physicochemical
[2] = Particle size distribution by laser diffraction (Malvern Mastersizer 2000), oxycodone base; format: physicochemical; details: Table 1 analysis; lot 2 in duplicate

With `COc1ccc2c3c1O[C@H]1C(=O)CC[C@@]4(O)[C@@H](C2)N(C)CC[C@]314` [micronized oxycodone preparation, oxycodone] the “Particle size (Dv90)” value ([1]; Time 0) was 5-6 μ and the “Particle size (Dv90 at three months)” value ([1]; stored at 25° C./60% RH and 40°/75% RH, 3 months) was 6-11 μ.
For `COc1ccc2c3c1O[C@H]1C(=O)CC[C@@]4(O)[C@@H](C2)N(C)CC[C@]314` [second high purity lot, oxycodone], the “Particle size (Dv90)” value ([1]; 1 month, stored, including at 25° C./60% RH and/or 40° C./75% RH (not specified)) was 4 μ, the “Particle size (Dv90)” value ([1]; 3 months, stored, including at 25° C./60% RH and/or 40° C./75% RH (not specified)) was 4 μ and the “Particle size (Dv90)” value ([1]; 6 months, stored, including at 25° C./60% RH and/or 40° C./75% RH (not specified)) was 5 μ. The “Particle size (Dv90)” value ([1]; 9 months, stored, including at 25° C./60% RH and/or 40° C./75% RH (not specified)) was 5 μ, the “Particle size (Dv90)” value ([1]; 12 months, stored, including at 25° C./60% RH and/or 40° C./75% RH (not specified)) was 5 μ and the “Particle size (Dv90)” value ([1]; 25° C./60% RH, 1 month, listed as second high purity micronized lot) was 4 μ. For the same compound, the “Particle size (Dv90)” value ([1]; 25° C./60% RH, 3 months, listed as second high purity micronized lot) was 4 μ, the “Particle size (Dv90)” value ([1]; 25° C./60% RH, 6 months, listed as second high purity micronized lot) was 6 μ and the “Particle size (Dv90)” value ([1]; 25° C./60% RH, 9 months, listed as second high purity micronized lot) was 5 μ. The “Particle size (Dv90)” value ([1]; 25° C./60% RH, 12 months, listed as second high purity micronized lot) was 6 μ, the “Particle size (Dv90)” value ([1]; 40° C./75% RH, 1 month, listed as second high purity micronized lot) was 5 μ and the “Particle size (Dv90)” value ([1]; 40° C./75% RH, 3 months, listed as second high purity micronized lot) was 5 μ. The “Particle size (Dv90)” value ([1]; 40° C./75% RH, 6 months, listed as second high purity micronized lot) was 6 μ, the “Particle size (Dv90)” value ([1]; Time 0) was 4 μ and the “Particle size (Dv90)” value ([1]; Time 0, listed as second high purity micronized lot) was 4 μ.
In the case of `COc1ccc2c3c1O[C@H]1C(=O)CC[C@@]4(O)[C@@H](C2)N(C)CC[C@]314` [first lot, oxycodone], the “Particle size (Dv90)” value ([1]; 25° C./60% RH, 6 months) is reported as 7 μ, the “Particle size (Dv90)” value ([1]; 25° C./60% RH, 9 months) is reported as 6 μ and the “Particle size (Dv90)” value ([1]; 25° C./60% RH, 12 months) is reported as 7 μ. For the same compound, the “Particle size (Dv90)” value ([1]; Time 0) was 6 μ.
With `COc1ccc2c3c1O[C@H]1C(=O)CC[C@@]4(O)[C@@H](C2)N(C)CC[C@]314` [Lot 2 (waste), oxycodone] the “Particle size (Dv10)” value [2] was 0.5, 0.5 μ, the “Particle size (Dv50)” value [2] was 1.6 μ and 2.3 μ and the “Particle size (Dv90)” value [2] was 3.3 μ and 4.9 μ.
